biological target: human NAMPT enzyme (His-hNAMPT) (Homo sapiens (Human), UniProt P43490); assay: NAMPT enzymatic inhibition assay (fluorescence, NADH product); type: biochemical; conditions: [BPS]; read-out: NAMPT IC50 (μM) [BPS]
Sequence (P43490 whole entry): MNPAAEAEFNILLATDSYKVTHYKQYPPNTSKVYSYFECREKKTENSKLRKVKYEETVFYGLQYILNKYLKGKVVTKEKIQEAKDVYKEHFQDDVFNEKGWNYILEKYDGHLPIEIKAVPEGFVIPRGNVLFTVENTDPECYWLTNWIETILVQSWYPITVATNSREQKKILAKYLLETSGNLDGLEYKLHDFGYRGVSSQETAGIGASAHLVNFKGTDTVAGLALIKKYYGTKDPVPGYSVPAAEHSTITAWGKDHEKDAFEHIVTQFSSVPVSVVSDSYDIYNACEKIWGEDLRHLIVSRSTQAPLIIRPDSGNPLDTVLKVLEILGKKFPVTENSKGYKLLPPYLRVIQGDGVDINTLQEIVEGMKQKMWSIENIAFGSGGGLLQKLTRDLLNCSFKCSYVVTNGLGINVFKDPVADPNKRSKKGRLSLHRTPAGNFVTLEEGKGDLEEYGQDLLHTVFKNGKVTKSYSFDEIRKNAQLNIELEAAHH

| SMILES | IC50 |
| --- | --- |
| O=C(NCC[C@@H]1[C@H]2CN(C(=O)N3CCCC3)C[C@@H]12)c1ccc2nccn2c1 [Example 66, N-(2-((1R,5S,6s)-3-(pyrrolidine-1-carbonyl)-3-azabicyclo[3.1.0]hexan-6-yl)ethyl)imidazo[1,2-a]pyridine-6-carboxamide] | 1 to 29 µM |
| CC(C)(C)OC(=O)N1C[C@H]2C[C@@H](CNC(=O)N3Cc4ccncc4C3)C[C@H]2C1 [Example 267, tert-butyl (3aR,5r,6aS)-5-((2,3-dihydro-1H-pyrrolo[3,4-c]pyridine-2-carboxamido)methyl)hexahydrocyclopenta[c]pyrrole-2(1H)-carboxylate] | 0.01 to 0.49 µM |
| CC(C)(C)OC(=O)N1C[C@@H]2[C@@H](CNC(=O)c3cc4ccncc4s3)[C@@H]2C1 [Example 236, (1R,5S,6s)-tert-butyl 6-((thieno[2,3-c]pyridine-2-carboxamido)methyl)-3-azabicyclo[3.1.0]hexane-3-carboxylate] | > 30 µM |
| Cc1nc(C)c(C(=O)N2C[C@@H]3[C@@H](CCNC(=O)c4ccc5nccn5c4)[C@@H]3C2)o1 [Example 103, N-(2-((1R,5S,6s)-3-(2,4-dimethyloxazole-5-carbonyl)-3-azabicyclo[3.1.0]hexan-6-yl)ethyl)imidazo[1,2-a]pyridine-6-carboxamide] | 0.01 to 0.49 µM |
| COc1cccc(N2C[C@@H]3[C@@H](CCNC(=O)c4cc5ccncc5o4)[C@@H]3C2)c1 [Example 130, N-(2-((1R,5S,6s)-3-(3-methoxyphenyl)-3-azabicyclo[3.1.0]hexan-6-yl)ethyl)furo[2,3-c]pyridine-2-carboxamide] | 0.01 to 0.49 µM |
| O=C(/C=C/c1cccnc1)NCC[C@@H]1[C@H]2CN(c3ncc4ccccc4n3)C[C@@H]12 [Example 125, (E)-3-(pyridin-3-yl)-N-(2-((1R,5S,6s)-3-(quinazolin-2-yl)-3-azabicyclo[3.1.0]hexan-6-yl)ethyl)acrylamide] | 0.01 to 0.49 µM |
| Nc1ccc(/C=C/C(=O)NCC[C@@H]2[C@H]3CN(C(=O)OC4Cc5ccccc5C4)C[C@@H]23)cn1 [Example 51, (1R,5S,6s)-2,3-dihydro-1H-inden-2-yl 6-(2-((E)-3-(6-aminopyridin-3-yl)acrylamido)ethyl)-3-azabicyclo[3.1.0]hexane-3-carboxylate] | 0.01 to 0.49 µM |
| O=C(NCC[C@@H]1[C@H]2CN(C(=O)N3CCOCC3)C[C@@H]12)c1cc2ccncc2o1 [Example 58, N-(2-((1R,5S,6s)-3-(morpholine-4-carbonyl)-3-azabicyclo[3.1.0]hexan-6-yl)ethyl)furo[2,3-c]pyridine-2-carboxamide] | 0.01 to 0.49 µM |

same assay, conditions: [HDB]; read-out: NAMPT IC50 (μM) [HDB]

| SMILES | IC50 |
| --- | --- |
| NC(=O)c1cnc(N2C[C@@H]3[C@@H](CCNC(=O)/C=C/c4cccnc4)[C@@H]3C2)nc1 [Example 174, 2-((1R,5S,6s)-6-(2-((E)-3-(pyridin-3-yl)acrylamido)ethyl)-3-azabicyclo[3.1.0]hexan-3-yl)pyrimidine-5-carboxamide] | < 0.01 µM |
| Nc1ccc(/C=C/C(=O)NCC[C@@H]2[C@H]3CN(c4ncc5ccccc5n4)C[C@@H]23)cn1 [Example 165, (E)-3-(6-aminopyridin-3-yl)-N-(2-((1R,5S,6s)-3-(quinazolin-2-yl)-3-azabicyclo[3.1.0]hexan-6-yl)ethyl)acrylamide] | 0.01 to 0.49 µM |
| O=C(/C=C/c1cccnc1)NCC[C@@H]1[C@H]2CN(c3ccnc(OC4CCOCC4)c3)C[C@@H]12 [Example 310, (E)-3-(Pyridin-3-yl)-N-(2-((1R,5S,6s)-3-(2-((tetrahydro-2H-pyran-4-yl)oxy)pyridin-4-yl)-3-azabicyclo[3.1.0]hexan-6-yl)ethyl)acrylamide] | 0.01 to 0.49 µM |
| O=C(/C=C/c1cccnc1)NCC[C@@H]1[C@H]2CN(c3nc(OC4CCCC4)ncc3F)C[C@@H]12 [Example 278, (E)-N-(2-((1R,5S,6s)-3-(2-(cyclopentyloxy)-5-fluoropyrimidin-4-yl)-3-azabicyclo[3.1.0]hexan-6-yl)ethyl)-3-(pyridin-3-yl)acrylamide] | < 0.01 µM |
| O=C(/C=C/c1cccnc1)NCC[C@@H]1[C@H]2CN(c3ccccn3)C[C@@H]12 [Example 176, (E)-N-(2-((1R,5S,6s)-3-(pyridin-2-yl)-3-azabicyclo[3.1.0]hexan-6-yl)ethyl)-3-(pyridin-3-yl)acrylamide] | 0.01 to 0.49 µM |
| N#Cc1ccc(N2C[C@@H]3[C@@H](CCNC(=O)/C=C/c4cccnc4)[C@@H]3C2)cc1 [Example 137, (E)-N-(2-((1R,5S,6s)-3-(4-cyanophenyl)-3-azabicyclo[3.1.0]hexan-6-yl)ethyl)-3-(pyridin-3-yl)acrylamide] | 0.01 to 0.49 µM |
| O=C(/C=C/c1ccncc1)NCC[C@@H]1[C@H]2CN(c3nc(Cl)ncc3F)C[C@@H]12 [Example 214, (E)-N-(2-((1R,5S,6s)-3-(2-chloro-5-fluoropyrimidin-4-yl)-3-azabicyclo[3.1.0]hexan-6-yl)ethyl)-3-(pyridin-4-yl)acrylamide] | 0.01 to 0.49 µM |
| O=C(/C=C/c1cccnc1)NCC[C@@H]1[C@H]2CN(c3cccc(Cl)c3)C[C@@H]12 [Example 145, (E)-N-(2-((1R,5S,6s)-3-(3-chlorophenyl)-3-azabicyclo[3.1.0]hexan-6-yl)ethyl)-3-(pyridin-3-yl)acrylamide] | 0.01 to 0.49 µM |
| O=C(NCC[C@@H]1[C@H]2CN(c3ccc(F)cc3)C[C@@H]12)c1cc2ccncc2o1 [Example 196, N-(2-((1R,5S,6s)-3-(4-fluorophenyl)-3-azabicyclo[3.1.0]hexan-6-yl)ethyl)furo[2,3-c]pyridine-2-carboxamide] | 0.01 to 0.49 µM |
| O=C(/C=C/c1cccnc1)NCC[C@@H]1[C@H]2CN(c3ccncc3)C[C@@H]12 [Example 154, (E)-3-(pyridin-3-yl)-N-(2-((1R,5S,6s)-3-(pyridin-4-yl)-3-azabicyclo[3.1.0]hexan-6-yl)ethyl)acrylamide] | 0.01 to 0.49 µM |
| COc1ncc(F)c(N2C[C@@H]3[C@@H](CCNC(=O)/C=C/c4ccc(F)nc4)[C@@H]3C2)n1 [Example 313, (E)-N-(2-((1R,5S,6s)-3-(5-fluoro-2-methoxypyrimidin-4-yl)-3-azabicyclo[3.1.0]hexan-6-yl)ethyl)-3-(6-fluoropyridin-3-yl)acrylamide] | < 0.01 µM |
| O=C(NCC[C@@H]1[C@H]2CN(c3nc(Cl)ncc3F)C[C@@H]12)c1cnc2[nH]ncc2c1 [Example 224, N-(2-((1R,5S,6s)-3-(2-chloro-5-fluoropyrimidin-4-yl)-3-azabicyclo[3.1.0]hexan-6-yl)ethyl)-1H-pyrazolo[3,4-b]pyridine-5-carboxamide] | 0.01 to 0.49 µM |
| O=C(NCC[C@@H]1[C@H]2CN(c3ccccc3)C[C@@H]12)c1cc2cnccc2[nH]1 [Example 198, N-(2-((1R,5S,6s)-3-phenyl-3-azabicyclo[3.1.0]hexan-6-yl)ethyl)-1H-pyrrolo[3,2-c]pyridine-2-carboxamide] | 0.01 to 0.49 µM |
| O=C(/C=C/c1cccnc1)NCC[C@@H]1[C@H]2CN(c3ccnc(Cl)c3)C[C@@H]12 [Example 160, (E)-N-(2-((1R,5S,6s)-3-(2-chloropyridin-4-yl)-3-azabicyclo[3.1.0]hexan-6-yl)ethyl)-3-(pyridin-3-yl)acrylamide] | < 0.01 µM |
| O=C(/C=C/c1cccnc1)NCC[C@@H]1[C@H]2CN(CC3CCOCC3)C[C@@H]12 [Example 246, (E)-3-(pyridin-3-yl)-N-(2-((1R,5S,6s)-3-((tetrahydro-2H-pyran-4-yl)methyl)-3-azabicyclo[3.1.0]hexan-6-yl)ethyl)acrylamide] | 0.5 to 0.99 µM |
